Earlier results, collected in patent publication US7361766B2, “Bicyclic heterocycles as cannabinoid receptor modulators” (Bristol-Myers Squibb Company, priority 2005, dated 2008).
Like-named read-outs stand apart in the source and are kept apart here.

Tests used:
[1] = tested on: CB-1; settings: multiple species including humans
[2] = chronic administration for two weeks
[3] = human subjects, 16 week trial period

SMILES | body weight [1] | food intake [1] | body weight [2] | body weight [3]
CCCCCc1cc(O)c2c(c1)OC(C)(C)[C@@H]1CCC(C)=C[C@@H]21 [Delta-9 THC, Delta-9-tetrahydrocannabinol] | weight gain | increased food intake | – | –
Cc1c(C(=O)NN2CCCCC2)nn(-c2ccc(Cl)cc2Cl)c1-c1ccc(I)cc1 [AM-251] | – | – | substantial body weight reduction | –
Cc1c(C(=O)NN2CCCCC2)nn(-c2ccc(Cl)cc2Cl)c1-c1ccc(Cl)cc1 [SR-141716] | – | – | – | dose-dependently reduced body weight
CCCCC/C=C\C/C=C\C/C=C\C/C=C\CCCC(=O)NCCO [anandamide] | weight gain | increased food intake | – | –
